Data reported in patent US20130085178A1, “COMPOSITION FOR TREATING BONE DISEASE COMPRISING A GLYCEOLLIN AS AN ACTIVE INGREDIENT” (KYUNGPOOK NATIONAL UNIVERSITY INDUSTRY-ACADEMIC COOPERATION …, priority 2010, published 2013).
“Also recorded” adds a separate entry of the source. Peptide text beside a SMILES is read from it. * marks the point of attachment. Cbz = O=C(OCc1ccccc1)*

What was measured:
Runx2 = Runx2 protein and mRNA level in MC3T3E1 cells during induction of differentiation; format: cell-based, mouse
Method: (§1) Osteoblasts isolated from calvarial of 18.5 days old mice and mouse MC3T3E1 cells were cultured in alpha-MEM containing 10% FBS at 37° C. in a humidified atmosphere containing 5% CO2. To induce differentiation of osteoblasts and MC3T3E1 cells, 50 μg/ml of ascorbic acid and 10 mM of beta-glycerophosphate are added to alpha-MEM containing 10% FBS. RAW264.7 (murine monocyte/macrophage) cells were cultured in D-MEM containing 10% FBS, and RANKL is added to alpha-MEM containing 10% FBS to induce differentiation to osteoclasts.
(§2) MC3T3E1 cells were treated with 0, 5, 10, 25 and 50 μM of glyceollin during induction of cellular differentiation. RAW264.7 cells were treated with 0, 5, 10 and 25 μM of glyceollin during induction of cellular differentiation. Osteoblasts isolated from mouse calvarial were treated with 0, 10 and 20 μM of glyceollin during induction of cellular differentiation. Osteoporosis mice induced by high dose vitamin D were daily injected 0, 0.5 and 5 μg/kg of glyceollin for 9 days.
(§3) To investigate the function of glyceollin on osteoblasts proliferation, morphology and number of glyceollin-treated MC3T3E1 cells were analyzed and MTT analysis was carried out.
To investigate whether the decrease of Runx2 protein is due to decrease of Runx2 mRNA, mRNA expression patterns were measured after treatment of glyceollin.
The Runx2 protein level decreased by glyceollin was recovered by MG132 (FIG. 1f).

MC3T3E1 cells = assay: Osteoblast proliferation: morphology, cell number and MTT analysis of glyceollin-treated MC3T3E1 cells; format: cell-based, mouse; conditions: vs untreated cells
Method: as §1, §3

[1] = test system: osteoblasts isolated from mouse calvarial; assay: Proteins and mRNAs related to osteoblast differentiation (Runx2, osteocalcin, Rankl, Opg) in osteoblasts isolated from mouse calvarial; format: cell-based
Method: as §1, §2
Proteins and mRNAs related to osteoblast differentiation were measured in osteoblasts isolated from mouse calvarial which were treated with 0, 10 and 20 μM of glyceollin.
Consequently, Rankl/Opg ratio was decreased by glyceollins in osteoblast differentiation (FIG. 2c).

[2] = test system: osteoblasts isolated from mouse calvarial; assay: Osteoblast differentiation by ALP staining, Alizarin Red staining and calcium contents; format: cell-based; conditions: 0, 10 and 20 μM glyceollin
Method: as §1, §2
Osteoblasts isolated from mouse calvarial were treated with 0, 10 and 20 μM of glyceollin during induction of cellular differentiation, and differentiation was analyzed by ALP staining (7 days after differentiation) and Alizarin Red staining (21 days after differentiation).
In addition, calcium contents of osteoblasts (21 days after differentiation) were measured and reduction of calcium was observed as glyceollin concentration increased (FIG. 3c).

RAW264.7 cells = assay: Differentiation of RAW264.7 cells to osteoclasts by TRAP staining; format: cell-based, murine; conditions: RANKL-induced, 0, 5, 10 and 25 μM glyceollin, TRAP stained 4 days after
Method: as §1, §2
RAW264.7 cells were treated with 0, 5, 10 and 25 μM of glyceollin during induction of differentiation, and then TRAP stained 4 days after to analyze osteoclasts.

osteoporosis mouse model = assay: Osteoporosis mouse model induced by high dose vitamin D (micro CT, Trichrome staining, TRAP staining of calvarial); format: in vivo, mice (C57BL/6)
Method: Normal mice (C57BL/6) were subcutaneously injected with high dose vitamin D (60×10^4 IU/kg) to obtain osteoporosis mouse model, and monitored during 10 days after first injection. High dose vitamin D activates osteoclasts to reduce mouse bone mass.
as §2
To elucidate in vivo inhibitory effect of glyceollin on differentiation of osteoclasts which had been confirmed in vitro, osteoporosis mouse model injected with high dose vitamin D one time a day for 3 days. The mice treated with glyceollins one time a day for 9 days were sacrificed at 10 days after first injection and calvarial was observed by micro CT analysis, Trichrome staining and TRAP staining.

[3] = 10 and 20 μM glyceollin during cellular proliferation
[4] = mouse calvarial osteoblasts, 0, 10 and 20 μM glyceollin
[5] = mouse calvarial osteoblasts, real-time PCR, 0, 10 and 20 μM glyceollin, listed as glyceollins
[6] = calvarial micro CT, 0, 0.5 and 5 μg/kg glyceollin daily for 9 days, sacrificed at 10 days
[7] = calvarial, osteoporosis mouse model by high dose vitamin D

CC(C)C[C@@H](C=O)NC(=O)[C@H](CC(C)C)NC(=O)[C@H](CC(C)C)NC(=O)OCc1ccccc1 [MG132, reference compound] (Cbz-Leu-Leu-Leu-aldehyde)
Runx2 protein level decreased by glyceollin, after further treatment with proteasome inhibitor (Runx2; MC3T3E1 cells, 20 μM glyceollin plus MG132 vs 20 μM glyceollin only): recovered

glyceollin
morphology of MC3T3E1 cells (MC3T3E1 cells; 20 μM glyceollin during cellular proliferation): similar; also recorded: no significant difference | MTT assay for MC3T3-E1 cells (MC3T3E1 cells; [3]): similar; also recorded: no significant difference | number of MC3T3E1 cells (MC3T3E1 cells; [3]): similar; also recorded: no significant difference | Runx2 protein level (Runx2; MC3T3E1 cells, 0, 5, 10, 25 and 50 μM glyceollin during induction of differentiation): decreased as the concentration of glyceollin increased | Runx2 mRNA level (Runx2; MC3T3E1 cells, 10 and 20 μM glyceollin during induction of differentiation): not changed; also recorded: not affected | Runx2 mRNA level [1, 4]: not changed; also recorded: not affected | osteocalcin mRNA level (differentiation marker of osteoblasts) [1, 4]: decreased according to the concentration of glyceollin; also recorded: Dose-dependent reduction | Runx2 protein level ([1]; mouse calvarial osteoblasts, 0, 10 and 20 μM glyceollin, D21): decreased by glyceollin in dose-dependent manner | Rankl/Opg ratio ([1]; mouse calvarial osteoblasts, osteoblast differentiation): decreased | Rankl mRNA level ([1]; mouse calvarial osteoblasts, real-time PCR, 0, 10 and 20 μM glyceollin): decreased according to the concentration of glyceollin | Opg mRNA level [1, 5]: not affected or slightly increased | Rankl mRNA level [1, 5]: down-regulated | differentiation of osteoblast by ALP staining ([2]; 7 days after differentiation): inhibited by glyceollin in dose-dependent manner | calcium contents of osteoblasts ([2]; 21 days after differentiation): decreased as the concentration of glyceollin increased; also recorded: reduction | differentiation of osteoblast by Alizarin Red staining ([2]; 21 days after differentiation): inhibited according to the concentration of glyceollin; also recorded: inhibited by glyceollin in dose-dependent manner | differentiation to osteoclasts (TRAP stained osteoclasts) (RAW264.7 cells): inhibited as the concentration of glyceollin increased; also recorded: reduced by glyceollin in dose-dependent manner | osteoporosis of mouse calvarial mediated by high dose vitamin D (BMC, BMD and TMD analysis after CT) (osteoporosis mouse model; administration of glyceollin): recovered | bone mineral contents (BMC) (osteoporosis mouse model; [6]): increased by glyceollin in dose-dependent manner | bone mineral density (BMD) (osteoporosis mouse model; [6]): increased by glyceollin in dose-dependent manner | tissue mineral contents (TMC) (osteoporosis mouse model; [6]): increased by glyceollin in dose-dependent manner | collagen generation (Trichrome staining) (osteoporosis mouse model; [7]): increased | number of osteoclasts (TRAP staining) (osteoporosis mouse model; [7]): decrease
